Measurements taken from patent US20170298056A1, “SMALL MOLECULE INHIBITORS OF HIV-1 ENTRY AND METHODS OF USE THEREOF” (Dana-Farber Cancer Institute, Inc., priority 2014, published 2017).

What was measured:
[1] = tested on: HIV-1HXBc2; assay: Cold inactivation of recombinant virus; type: cell-based; details: in the presence of 18A vs DMSO or unrelated compounds
Procedure: For washout experiments, different concentrations of 18A were incubated with the recombinant viruses at 37° C. for 20 minutes. The viruses were laid on a 20% sucrose cushion and ultracentrifuged at 30,000 RPM in an SW55 rotor for 1.5 hours at 4° C. After the supernatant was aspirated, viruses were suspended in 500-1000 μl medium and 90 μl of the virus suspension was used to infect 5000 Cf2Th-CD4/CCR5 cells (5 replicates). The cells were incubated for 48 hours and processed as described above. Sensitivity of recombinant viruses to cold inactivation was measured.

[2] = tested on: SIVmac239; assay: Viral infection assay, SIV Env; type: cell-based; details: virus with SIVmac239 Env
Procedure: Production of recombinant HIV-1 expressing luciferase. […] After 48 hours, the supernatant was collected, buffered with 50 mM Hepes pH 7.4 (final concentration) and centrifuged for 5 minutes at 750×g and 4° C. The virus-containing supernatant was used directly or frozen at −80° C.
Viral infection assay. Each test compound was serially diluted in DMSO in a 96-well B&W isoplate (PerkinElmer, Boston, Mass.) using an HP D300 Digital Dispenser, to a final volume of 450 nl. DMSO was used as a control. Viruses pseudotyped with a specific Env were added to each well and incubated briefly at room temperature. Cf2Th-CD4/CCR5 cells were detached with StemPro Accutase Cell Dissociation Reagent (Invitrogen, cat #A11105-01), washed once, and 5000 cells were added to each well. […] Following incubation, the medium was aspirated and cells were lysed with 30 μl of Passive Lysis Buffer (Promega, cat #E1941). The activity of the firefly luciferase, which was used as a reporter protein in the system, was measured with a Centro LB 960 luminometer (Berthold Technologies, Oak Ridge, Tenn.). One hundred microliters of assay buffer (15 mM MgSO4, 15 mM KH2PO4/K2HPO4 pH 7.8, 1 mM ATP and 1 mM DTT) was injected to each well, followed by a 50 μl injection of 1 mM Dluciferin potassium salt (BD Pharmingen, San Jose, Calif.); luminescence was measured for 2 sec. […]

[3] = tested on: HIV-1JR-FLΔCT Env trimer (gp41 HR1); assay: CD4-induced gp41 HR1 exposure, C34-Ig binding (flow cytometry); details: 100 μM 18A prior to sCD4 addition; approx. 37% with sCD4 alone
Procedure: Flow cytometry. […] After 48-72 hours, cells were detached with 5 mM EDTA/PBS and between 0.5-1 million cells were briefly incubated with various concentrations of 18A and then with or without the indicated concentrations of sCD4. C34-Ig (at a final concentration of 20 μg/ml) or a specified antibody (at final concentration of 1 μg/ml) was added to the cells. […] Cells were washed twice and analyzed with a BD FACSCanto II flow cytometer (BD Biosciences). For analysis of resistant mutants (FIG. 5e-g), the measurements were normalized for the level of sCD4 binding of each mutant, and the response of each mutant was further normalized to that of the wild-type HIV-1JR-FL E168K+N188AΔCT Env (herein designated WTKA). […] The sCD4 IC50/sCD4 binding ratio (FIGS. 4c and e) was calculated as follows. Binding of sCD4 to different envelope mutants was measured by flow cytometry and normalized first to 2G12 binding to account for potentially different Env expression levels, and then to sCD4 binding to the wild-type HIV-1JR-FL Env. The IC50 of sCD4 for inhibition of virus infection by each mutant Env was divided by the normalized sCD4 binding to Env-expressing cells to calculate the sCD4 IC50/sCD4 binding value.

[4] = tested on: Cf2Th-CD4/CCR5 cells; assay: Viability assay (CellTiterGlo), CD4/CCR5-expressing target cells; type: cell-based; details: read-out: half-maximal cytotoxic concentration (CC50)
Procedure: Viability Assay. As part of the secondary screen, cells were incubated for ˜20 hours in 384-well plates in a final volume of 45 μl growth medium at 37° C. The plate was equilibrated to room temperature, 15 μl of CellTiterGlo (Promega) was added to each well and luminescence was measured as described above. The viability assay with 18A was done in parallel to the viral infection assay for the same length of time. 18A was diluted using an HP D300 Digital Dispenser in a 96-well B&W isoplate and cells were added. After incubation of 26-30 hours (Cf2Th cells) or 40-44 hours (PBMC). 30 μl (Cf2Th cells) or 100 μl (PBMC) of CellTiterGlo was added and luminescence was measured as described above.

O=C(N/N=C/c1ccc(O)cc1)Nc1cccc2nsnc12 [Compound 18A]
sensitivity of virus to cold inactivation [1]: decreased sensitivity to cold inactivation | inhibition of infection [2]: significantly less potent | cells binding C34-Ig [3]: 4.7% | CC50 [4]: 44 µM
